The results in this text go back to PubChem BioAssay (NCI).

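In this assay, cells in 96-well plates receive the compound at five concentrations for 48 hours. Endpoints are linearly interpolated between the surrounding concentrations. Definition used: TGI = concentration required for complete inhibition of growth.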

Among the test systems are HL-60(TB) leukemia; U251 CNS; LOX IMVI melanoma; SK-OV-3 ovarian; SN12C renal; SR leukemia; 786-0 renal; UACC-62 melanoma; SK-MEL-28 melanoma; MDA-N; A549 NSCLC; OVCAR-3 ovarian.
Common to all, as to experiment: inhibition of tumour cell growth, NCI panel, 48 h

As to `O=C(/C=C/c1ccc(O)c(O)c1O)OCCc1ccccc1`, the TGI was 48.8 µM in the experiment on HL-60(TB) leukemia; 80.6 µM in the experiment on U251 CNS; 53.5 µM with LOX IMVI melanoma; greater than 100 µM in the experiment on SK-OV-3 ovarian; 34.4 µM in the experiment on SN12C renal; 40.6 µM in the experiment on SR leukemia. Besides, the TGI in the experiment on 786-0 renal is 35.5 µM; in the experiment with UACC-62 melanoma, greater than 100 µM; with SK-MEL-28 melanoma, greater than 100 µM; in the experiment with MDA-N, 34 µM; in the experiment on A549 NSCLC, 52.8 µM; with OVCAR-3 ovarian it was 46.5 µM.
Turning to `COc1cc2c(cc1O)[C@@H]1Cc3c(cc(OC)c(OC)c3Oc3cc4c(cc3OC)CCN(C)[C@@H]4Cc3ccc(O)cc3)[C@H](C2)N1C`, the TGI is 36.6 µM with HL-60(TB) leukemia; greater than 100 µM with U251 CNS; 37.7 µM with LOX IMVI melanoma; greater than 100 µM in the experiment with SK-OV-3 ovarian; greater than 100 µM in the experiment on SN12C renal; 19.3 µM with SR leukemia. In addition, the TGI in the experiment on 786-0 renal is greater than 100 µM; in the experiment on UACC-62 melanoma, greater than 100 µM; in the experiment with SK-MEL-28 melanoma, 34.9 µM; in the experiment on MDA-N, 38.3 µM; in the experiment on A549 NSCLC, greater than 100 µM; with OVCAR-3 ovarian it was greater than 100 µM.
Consider `CC(=O)OC1CC[C@]2(C)C3CC[C@@]4(C)C(CCC4[C@H](C)CCCC(C)C)[C@@H]3CCC2(Br)C1` (stereo partly specified), for which the TGI in the experiment on HL-60(TB) leukemia is 28.3 µM; in the experiment with U251 CNS, greater than 50 µM; with LOX IMVI melanoma it was 29.4 µM; with SK-OV-3 ovarian, greater than 50 µM; with SN12C renal, greater than 50 µM; in the experiment with SR leukemia it was 24.8 µM. Moreover, the TGI in the experiment on 786-0 renal is 17.5 µM; in the experiment on UACC-62 melanoma it was greater than 50 µM; in the experiment on SK-MEL-28 melanoma, 16.2 µM; in the experiment with MDA-N it was greater than 50 µM; with A549 NSCLC, greater than 50 µM; in the experiment with OVCAR-3 ovarian, 42.5 µM.
In the case of `NC(=Nc1ccc(O)cc1)S(=O)O`, the TGI in the experiment on HL-60(TB) leukemia, with U251 CNS, in the experiment on LOX IMVI melanoma, with SK-OV-3 ovarian, in the experiment on SN12C renal and in the experiment on SR leukemia was greater than 100 µM throughout. In addition, the TGI in the experiment with 786-0 renal, in the experiment with UACC-62 melanoma, with SK-MEL-28 melanoma, in the experiment on MDA-N, in the experiment on A549 NSCLC and with OVCAR-3 ovarian was greater than 100 µM throughout.
Regarding `COC(=O)[C@@H]1C[C@@H]2c3ccccc3N(S(=O)(=O)c3ccccc3)[C@@H]2N1C(=O)OC`, the TGI with HL-60(TB) leukemia, in the experiment with U251 CNS, in the experiment with LOX IMVI melanoma, in the experiment with SK-OV-3 ovarian, in the experiment with SN12C renal and with SR leukemia was greater than 100 µM in each case. Besides, the TGI in the experiment with 786-0 renal, in the experiment on UACC-62 melanoma, in the experiment with SK-MEL-28 melanoma, in the experiment on MDA-N, in the experiment with A549 NSCLC and in the experiment on OVCAR-3 ovarian was greater than 100 µM each time.
Consider `OC1CN2Cc3cc4c(cc3[C@]13C=C[C@@H](O)CC23)OCO4` (stereo partly specified), for which the TGI is 75.3 µM with HL-60(TB) leukemia; greater than 100 µM in the experiment on U251 CNS; greater than 100 µM in the experiment with LOX IMVI melanoma; greater than 100 µM in the experiment with SK-OV-3 ovarian; greater than 100 µM in the experiment with SN12C renal; greater than 100 µM in the experiment with SR leukemia. Moreover, the TGI in the experiment on 786-0 renal, in the experiment with UACC-62 melanoma, in the experiment with SK-MEL-28 melanoma, in the experiment with MDA-N, in the experiment on A549 NSCLC and in the experiment on OVCAR-3 ovarian was greater than 100 µM each time.
Turning to `COc1ccc(Cc2nccc3cc(OC)c(OC)cc23)cc1OC`, the TGI with HL-60(TB) leukemia, with U251 CNS, with LOX IMVI melanoma, in the experiment with SK-OV-3 ovarian, with SN12C renal and in the experiment on SR leukemia was greater than 100 µM throughout. In addition, the TGI in the experiment with 786-0 renal, in the experiment with UACC-62 melanoma, with SK-MEL-28 melanoma, in the experiment on MDA-N, with A549 NSCLC and in the experiment with OVCAR-3 ovarian was greater than 100 µM throughout.
As to `COc1c(O)c2c(=O)cc(OC)c3c4c(OC)cc(=O)c5c(O)c(OC)c6c(c(c1C(C(C)=O)C6C(C)O)c23)c54` (stereo unspecified), the TGI with HL-60(TB) leukemia was 0.415 µM; in the experiment with U251 CNS, 0.603 µM; in the experiment on LOX IMVI melanoma, 0.32 µM; with SK-OV-3 ovarian it was 2.49 µM; in the experiment with SN12C renal it was 2.94 µM; with SR leukemia, 1.93 µM. The TGI worked out at 3.81 µM with 786-0 renal; 1.01 µM in the experiment with UACC-62 melanoma; 3.3 µM with SK-MEL-28 melanoma; 2.34 µM in the experiment with MDA-N; 3.06 µM in the experiment with A549 NSCLC; 0.442 µM in the experiment with OVCAR-3 ovarian.
